Measured values published in patent US8110547B2, “Compositions for buccal delivery of parathyroid hormone” (Emisphere Technologies, Inc., priority 2005, dated 2012).
Where two headings read alike, the source gives them in different places.

Tests used:
[1] = Serum PTH pharmacokinetics after oral and buccal administration to rats; assay type: in vivo, Male Sprague Dawley rats; settings: rat, 0.2 mg/kg PTH with 200 mg/kg monosodium 4-MOAC; for AUC(0-inf) / AUC(0-t) / Cmax / Tmax: male, Sprague Dawley, serum, 0.2 mg/kg
Protocol: A stock solution of human recombinant PTH (1-34) was prepared by dissolving hPTH (1-34) (Eli Lilly, Indianapolis, Ind.) in deionized water to a concentration of 4 mg/ml. A stock solution of delivery agent was prepared by dissolving the delivery agent in deionized water. The pH of the resulting delivery agent solution was adjusted to between 7.5 and 8.5. A liquid buccal dosage form was prepared by mixing the PTH stock solution with the delivery agent stock solution immediately prior to dosing. For the present example, four dosage forms were prepared as described below.
The dosage forms were administered to Male Sprague Dawley rats, ranging in weight from about 250 g to about […]. Each rat was anesthesized with 2% isofiurane in pure oxygen during the whole experiment. The femoral artery was cannulated for blood sampling. The esophagus was ligated to prevent wallowing of the dosing solution. The trachea was intubated and the rat was provided with a constant flow of 2% isofiurane in oxygen.
The liquid dosage form was administered by inserting a T-shaped dosing tool into the mouth of the rat. The center of the dosing tool was placed under the tongue and the liquid dosage form (approximately […] body weight) was administered by syringe through the dosing tool, such that the dosage was distributed evenly throughout the buccal area. Following administration, the mouth was glued shut. Blood samples were drawn at predetermined periods from the femoral artery and assayed for PTH. The liquid dosage solution was allowed to remain in the buccal area for 90 minutes (e.g., the dosing duration). After 90 minutes the liquid dosage solution was removed from the buccal area by syringe.
The concentration of PTH was determined using a PTH (1-34) immunradiometric assay kit (Immutopics, San Clemente, Calif.). Samples were prepared by storage for 20 minutes between 2° C. and 8° C., followed by centrifugation at 10,000 G for 10 minutes to obtain serum. The serum concentration of PTH was than determined using a PTH (1-34) immunradiometric assay kit.
A liquid dosage form was prepared as described above wherein the dosage amount of monosodium 4-MOAC was 200 mg/kg and the dosage amount of PTH was 0.2 mg/kg. The dosage form was administered buccally as described above. Oral administration was carried out by anesthetizing the rat with a mixture of ketamine (44 mg/kg) and thorazine (1.5 mg/kg), followed by administration of the oral dosage by a gavaging trocar. The dosing duration for buccal administration was 5 and 60 minutes respectively. Blood samples were drawn from the rat as described above and the serum concentration of PTH was determined as described previously.

[2] = Pharmacokinetics after buccal, oral and subcutaneous administration of PTH to dogs; assay type: in vivo; settings: dog; for AUC(0-t) / Cmax / Tmax / F rel: in vivo; for F rel: bioavailability relative to subcutaneous administration, read-out: AUC0−>t BA (%)
Protocol: The animal was moderately sedated using 0.4-0.8 mg/kg midazolam (IM) and 0.03-0.04 mg/kg medetomidine IV or IM in order to minimize the risk of the animal swallowing the test material. The level of sedation was continuously monitored and respiratory rate and general activity level was noted. Once adequately sedated, the dog was moved to a flat surface and an intravenous catheter was placed in the cephalic vein. For dose application, the dog was placed on its side with its head and jaw angled to maximally hold the test material in the mouth.
For an aqueous dosing solution, a syringe filled with the dosing solution (up to 1.5 ml) was placed sublingually and infused slowly up to 0.75 ml in an equal amount at the right and left space under the tongue of the dog. For sublingual tablet, the tablets were placed under the tongue and up to 1.5 ml of saline was administered to facilitate the sublingual dissolution. On one hour post-administration, any remaining formulation was removed by syringe aspiration and the area was rinsed once with saline solution and the saline solution that was then removed by a syringe aspiration.
Once the animal recovered from the sedatives, restraint-acclimated animals was restrained using a sling for the duration of the experiment. Blood samples were collected at specific time-points, i.e., 0, 0.25, 0.5, 1, 1.5, 2, 2.5 and up to 4 hours.
For comparison of the dosing route with intraoral delivery, an oral tablet dosing study was followed. The equivalent dose of drug and carrier was prepared to be the oral formulation of tablets that were gavaged, and 1 ml of water was administered into the gavaging tubing.
The final two columns in Table 2 show the relative bioavailability to subcutaneous administration by buccal and oral administrations of PTH to dog, and the respective coefficient of variations.

[3] = buccal 5 min dosing duration versus oral
[4] = buccal 60 min dosing duration versus oral
[5] = buccal (sublingual), formulation removed one hour post-administration

- AUC(0-inf) ([1]; buccal, 5 min dosing duration): 2.8 ng·h/mL
- AUC(0-t) ([1]; buccal, 5 min dosing duration): 0.975 ng·h/mL
- Cmax ([1]; buccal, 5 min dosing duration): 1.7 ng/mL
- Tmax ([1]; buccal, 5 min dosing duration): 5 min
- AUC(0-inf) ([1]; buccal, 60 min dosing duration): 3.44 ng·h/mL
- AUC(0-t) ([1]; buccal, 60 min dosing duration): 1.29 ng·h/mL
- Cmax ([1]; buccal, 60 min dosing duration): 1.82 ng/mL
- Tmax ([1]; buccal, 60 min dosing duration): 15 min
- AUC(0-inf) ([1]; po, oral gavage): 2.62 ng·h/mL
- AUC(0-t) ([1]; po, oral gavage): 10.4 ng·h/mL
- Cmax ([1]; po, oral gavage): 1.43 ng/mL
- Tmax ([1]; po, oral gavage): 15 min
- Buccal:Oral AUC0−>t Ratio [1, 3]: 0.94
- Buccal:Oral AUC0−>∞ Ratio [1, 3]: 1.1
- Buccal:Oral AUC0−>t Ratio [1, 4]: 1.2
- Buccal:Oral AUC0−>∞ Ratio [1, 4]: 1.3
- AUC0−>t BA (%) ([2]; subcutaneous (reference route)): 100%
- AUC(0-t) ([2]; sc, subcutaneous): 8.47 ng·h/mL
- Cmax ([2]; sc, subcutaneous): 6.39 ± 1.97 ng/mL
- Tmax ([2]; sc, subcutaneous): 26 min
- AUC(0-t) [2, 5]: 2.82 ng·h/mL
- Cmax [2, 5]: 3.35 ± 2.65 ng/mL
- Tmax [2, 5]: 62 min
- F rel ([2]; buccal): 3.3%
- AUC(0-t) ([2]; oral tablets gavaged): 0.41 ng·h/mL
- Cmax ([2]; oral tablets gavaged): 0.632 ± 0.568 ng/mL
- Tmax ([2]; oral tablets gavaged): 23 min
- F rel ([2]; oral): 4.8%
SMILES: CC[C@H](C)[C@H](NC(=O)[C@H](CCC(=O)O)NC(=O)[C@H](CO)NC(=O)[C@@H](NC(=O)[C@@H](N)CO)C(C)C)C(=O)N[C@@H](CCC(N)=O)C(=O)N[C@@H](CC(C)C)C(=O)N[C@@H](CCSC)C(=O)N[C@@H](Cc1cnc[nH]1)C(=O)N[C@@H](CC(N)=O)C(=O)N[C@@H](CC(C)C)C(=O)NCC(=O)N[C@@H](CCCCN)C(=O)N[C@@H](Cc1cnc[nH]1)C(=O)N[C@@H](CC(C)C)C(=O)N[C@@H](CC(N)=O)C(=O)N[C@@H](CO)C(=O)N[C@@H](CCSC)C(=O)N[C@@H](CCC(=O)O)C(=O)N[C@@H](CCCN=C(N)N)C(=O)N[C@H](C(=O)N[C@@H](CCC(=O)O)C(=O)N[C@@H](Cc1c[nH]c2ccccc12)C(=O)N[C@@H](CC(C)C)C(=O)N[C@@H](CCCN=C(N)N)C(=O)N[C@@H](CCCCN)C(=O)N[C@@H](CCCCN)C(=O)N[C@@H](CC(C)C)C(=O)N[C@@H](CCC(N)=O)C(=O)N[C@@H](CC(=O)O)C(=O)N[C@H](C(=O)N[C@@H](Cc1cnc[nH]1)C(=O)N[C@@H](CC(N)=O)C(=O)N[C@@H](Cc1ccccc1)C(=O)O)C(C)C)C(C)C [PTH, human recombinant PTH (1-34)]
